Experimental data: patent publication US10890586B2, “Methods and kits for assaying endoglycosidase activity” (Bio-Techne Corporation, priority 2016, dated 2021)
Blank lines part the entries; values can stand above or below the molecule they belong to.

Legend:
HPSE = biological target: T1, HPSE (Homo sapiens, UniProt Q9Y251); assay: HPSE inhibitor study (ELISA-based HPSE activity assay with labeled rhSynd4); format: biochemical; settings: 10 ng HPSE, 50 mM NaAc pH 4.0, 37° C. for two hours, OD 450
T1 construct: purchased Bio-Techne
T1 sequence (Q9Y251 158-543 limits assumed): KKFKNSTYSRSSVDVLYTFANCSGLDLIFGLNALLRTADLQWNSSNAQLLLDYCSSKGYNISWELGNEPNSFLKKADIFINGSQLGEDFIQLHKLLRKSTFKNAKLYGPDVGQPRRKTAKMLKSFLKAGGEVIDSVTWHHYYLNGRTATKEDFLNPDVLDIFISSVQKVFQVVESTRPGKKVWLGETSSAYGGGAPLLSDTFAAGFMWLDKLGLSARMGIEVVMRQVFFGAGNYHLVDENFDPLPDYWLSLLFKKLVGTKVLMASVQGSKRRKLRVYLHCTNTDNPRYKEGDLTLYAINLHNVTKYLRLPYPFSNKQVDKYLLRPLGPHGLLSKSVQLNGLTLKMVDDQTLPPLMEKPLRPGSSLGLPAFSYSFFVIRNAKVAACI
T1 sequence (Q9Y251 36-109 limits assumed): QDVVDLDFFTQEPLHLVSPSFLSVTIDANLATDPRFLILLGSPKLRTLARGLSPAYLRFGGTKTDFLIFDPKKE
Experimental: In order to prepare the sample for the assay, the goat anti-human Syndecan-4 capture antibody was diluted to a working concentration in PBS without carrier protein. A 96-well microplate was immediately coated with 100 μL per well of the diluted capture antibody. The plate was sealed and incubated overnight at room temperature. Each well was subsequently aspirated and washed with wash buffer, repeating the process two times for a total of three washes. The wash buffer is 25 mM Tris (pH 7.6), 137 mM NaCl, and 0.01% Tween (TBST). Each well was washed by filling each well with 400 μL of wash buffer using a squirt bottle, manifold dispenser, or autowasher. After the last wash, any remaining wash buffer was removed by aspirating or by inverting the plate and blotting it against clean paper towels. The microplate was then blocked by adding 300 μL of reagent diluent to each well and incubating the microplate for a minimum of 1 hour. The microplate was then aspirated/washed as described above for a total of three washes, and the microplate was thus ready for sample addition.
To perform the ELISA assay, 100 μL of the HPSE treated mixture diluted with 1% BSA in PBS buffer were added per well. The HPSE treated mixture was diluted such that the concentration of rhSynd4 was 25 ng/ml. […]
The absorbance (OD 450) for each of the three compounds was determined using a microplate reader set to 450 nm. […]

[1] = biological target: goat anti-human lumican capture antibody; assay: ELISA detection of KS non-reducing end labeled recombinant lumican; format: binding; settings: 0-100 ng labeled lumican, 80 ng/well capture antibody, OD 450
Experimental: This study confirmed that the endoglycosidase activity assay of this disclosure is applicable to other endoglycosidases in addition to HPSE. An ELISA assay was first used to detect labeled recombinant lumican. The non-reducing ends of KS chains on recombinant human lumican were labeled through in vitro incorporation of GlcNAz by B3GNT2 (a KS specific GlcNAc transferase) according to the procedure described in Example 2 above. Increasing amounts of the labeled lumican (0-100 ng) were subsequently immobilized on a 96-well plate coated with 80 ng/well of goat anti-human lumican capture antibody. A DuoSet ELISA kit of Human Lumican was used to perform an ELISA assay similarly to the procedure described in Example 4 above. The absorbance (OD 450) of each well was determined using a microplate reader set to 450 nm. FIG. 8 is a graph of the OD 450 of increasing amounts of labeled lumican. The data was fit to the equation y=Cx/(Kd+x) to obtain curve 802, where Kd is the ligand-receptor binding affinity (dissociation constant for lumican bound to the capture antibody).

[2] = biological target: goat anti-human Syndecan-4 capture antibody; assay: ELISA detection of HS non-reducing end labeled rhSynd4; format: binding; settings: 0-50 ng labeled rhSynd4, 80 ng/well capture antibody, OD 450, fit y=Cx/(Kd+x)
Experimental: In order to establish a high throughput compatible method for HS detection, an ELISA assay was used to attempt to detect labeled rhSynd4. The non-reducing ends of HS chains on rhSynd4 were labeled according to Example 2 above. Increasing amounts of the labeled rhSynd4 (0-50 ng) were subsequently immobilized on a 96-well plate coated with 80 ng/well of goat anti-human Syndecan-4 capture antibody. The Syndecan-4 DuoSet kit was used to perform an ELISA assay (described in detail in Example 4 below). The absorbance (OD 450) of each well was determined using a microplate reader set to 450 nanometers (nm).
FIG. 4 is a graph of the OD 450 of increasing amounts of labeled rhSynd4. The data was fit to the equation y=Cx/(Kd+x) to obtain curve 402, where Kd is the ligand-receptor binding affinity (dissociation constant for rhSynd4 bound to the capture antibody).

Molecule: heparin
EC50 (HPSE): 0.12 µg/mL

Molecule: chondroitin sulfate
EC50 (HPSE): 0.39 µg/mL

More lines, now with the values ahead:

Kd (dissociation constant for lumican bound to the capture antibody) [1]: 7.58 ng
Molecule: labeled lumican: recombinant human lumican with KS non-reducing ends labeled with GlcNAz by B3GNT2

Kd (dissociation constant for rhSynd4 bound to the capture antibody) [2]: 3.4 ng
B1: labeled rhSynd4: recombinant human Syndecan-4 with HS non-reducing ends labeled with GlcNAz and biotin by click chemistry (protein, UniProt P31431 19-198, looked up)
Syndecan-4: ESIRETEVIDPQDLLEGRYFSGALPDDEDVVGPGQESDDFELSGSGDLDDLEDSMIGPEVVHPLVPLDNHIPERAGSGSQVPTEPKKLEENEVIPKRISPVEESEDVSNKVSMSSTVQGSNIFERTEVLAALIVGGIVGILFAVFLILLLMYRMKKKDEGSYDLGKKPIYKKAPTNEFYA
modifications: HS ends labeled GlcNAz and biotin
notes: recombinant human Syndecan-4 with HS non-reducing ends labeled with GlcNAz and biotin by click chemistry
